# Patent US8809341B2, “2,4-pyrimidinediamine compounds and uses as anti-proliferative agents” (Rigel Pharmaceuticals, Inc., priority 2003, dated 2014)
# Read-outs that look alike come from different tables or passages of the source.
# Key:
# Format in all cases: cell-based
# HCT116 = test: in vitro antiproliferation assay, HCT116 (colon)
# Protocol: The IC50 values of various compounds against a various different tumor cell lines were determined using standard in vitro antiproliferation assays. The tumor cell lines tested were as follows: A549 (lung); H1299 (lung), ACHN (kidney/p53 wt), CAKI (renal cell carcinoma), NCI-H460 (lung); HCT116 (colon/p53w0; HELA (cervix/p53 wt), HUH7 (liver/p53 wt), HUVEC (primary endothelial), LNCAP (prostate), HT-29 (colon); MCF-7 (breast); MCF-7 (breast/ER positive), MDA MB435S (breast); MDA MB231 (breast/ER negative), DU145 (prostate); BxPC-3 (pancreatic); SKOV-3 (ovarian); HepG2 (hepatic), NDHF primary normal human dermal fibroblast), SKMEL28 (breast/p53mut), SKMEL5 (breast/p53 wt), U20S (bone) and PC3 (prostate). […] A blank indicates the specified compound was not tested against the specified cell line.
# Many of the compounds were tested against other cell lines. Their activity is reported in TABLE 15, below, where +”, “−”, “−/+” or “+/−” values are as described for TABLES 1-14. Where the cell line includes a value in a parenthetical, the value indicates the seeding density at which the assay was performed
# A549 cells = test: in vitro antiproliferation assay, A549 (lung); settings: A549 (lung) cells
# In short: (§1)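 IC50 values came from standard antiproliferation testing in cultured tumour cells; the A549 and H1299 lines are of lung origin.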
# H1299 cells = test: in vitro antiproliferation assay, H1299 (lung); settings: H1299 (lung) cells
# In short: as §1
# [1] = HCT116 (colon), read-out: HCT116
# [2] = in vitro antiproliferation, Table 4, compounds with no designated stereochemistry tested as racemate
# [3] = Table 5, in vitro antiproliferation
# [4] = Table 7, in vitro antiproliferation, colon cells, read-out: HTC116
# [5] = Table 7, in vitro antiproliferation
smiles,measurement,setting,value
CNC(=O)COc1cccc(Nc2ncc(F)c(Nc3ccc4c(c3)NC(=O)[C@H](C)O4)n2)c1 [compound 300],IC50,HCT116; [1],≤ 20 µM
same,IC50,A549 cells; [2],≤ 20 µM
COc1cc(Nc2ncc(F)c(Nc3ccc4c(c3)NC(=O)C(C)(C)O4)n2)cc(OC)c1 [compound 305],IC50,HCT116; [1],≤ 20 µM
same,IC50,A549 cells; [2],≤ 20 µM
COc1c(Cl)cc(Nc2ncc(F)c(Nc3ccc4c(c3)NC(=O)C(C)(C)O4)n2)cc1Cl [compound 307],IC50,HCT116; [1],≤ 20 µM
same,IC50,A549 cells; [2],≤ 20 µM
COc1cc(Nc2ncc(F)c(Nc3ccc4c(c3)NC(=O)C(C)(C)O4)n2)cc(C(F)(F)F)c1 [compound 309],IC50,HCT116; [1],≤ 20 µM
same,IC50,A549 cells; [2],≤ 20 µM
Cc1cc(C)cc(Nc2ncc(F)c(Nc3ccc4c(c3)NC(=O)C(C)(C)O4)n2)c1 [compound 310],IC50,HCT116; [1],≤ 20 µM
same,IC50,A549 cells; [2],≤ 20 µM
CC1(C)Oc2ccc(Nc3nc(Nc4cccc(O)c4)ncc3F)cc2NC1=O [compound 356],IC50,HCT116; [1],> 20 µM
Cc1cc(Nc2ncc(F)c(Nc3ccc4c(c3)NC(=O)C(C)(C)O4)n2)cc(Cl)c1O [compound 358],IC50,HCT116; [1],< 20 µM
CC(=O)N1CCN(c2ccc(Nc3ncc(F)c(Nc4ccc5c(n4)NC(=O)CO5)n3)cc2)CC1 [compound 419],IC50,HCT116; [1],≤ 20 µM
CC(=O)N1CCN(c2ccc(Nc3ncc(F)c(Nc4ccc5c(n4)NC(=O)C(C)(C)O5)n3)cc2)CC1 [compound 432],IC50,HCT116; [1],≤ 20 µM
CN1CCN(c2ccc(Nc3ncc(F)c(Nc4ccc5c(n4)NC(=O)CO5)n3)cc2)CC1 [compound 435],IC50,HCT116; [1],≤ 20 µM
CN1CCN(c2ccc(Nc3ncc(F)c(Nc4ccc5c(n4)NC(=O)C(C)(C)O5)n3)cc2)CC1 [compound 436],IC50,HCT116; [1],≤ 20 µM
O=C(COc1cccc(Nc2ncc(F)c(Nc3ccc4c(c3)OCCO4)n2)c1)N1CCNCC1 [compound 497],IC50,HCT116; [1],> 20 µM
same,IC50,A549 cells; [3],≤ 20 µM
NC(=O)COc1cccc(Nc2ncc(F)c(Nc3ccc4c(c3)OCCO4)n2)c1 [compound 504],IC50,HCT116; [1],≤ 20 µM
same,IC50,A549 cells; [3],≤ 20 µM
COc1cc(Nc2ncc(F)c(Nc3ccc4c(c3)OCCO4)n2)cc(OC)c1OC [compound 506],IC50,HCT116; [1],> 20 µM
same,IC50,A549 cells; [3],≤ 20 µM
Oc1c(Cl)cc(Nc2ncc(F)c(Nc3ccc4c(c3)OCCO4)n2)cc1Cl [compound 507],IC50,HCT116; [1],> 20 µM
same,IC50,A549 cells; [3],≤ 20 µM
Cc1cc(C)cc(Nc2ncc(F)c(Nc3ccc4c(c3)OCCO4)n2)c1 [compound 527],IC50,HCT116; [1],≤ 20 µM
same,IC50,A549 cells; [3],≤ 20 µM
Cc1cc(Nc2ncc(F)c(Nc3ccc4c(c3)OCCO4)n2)cc(C)c1Cl [compound 528],IC50,HCT116; [1],≤ 20 µM
same,IC50,A549 cells; [3],≤ 20 µM
OCCOc1cccc(Nc2ncc(F)c(Nc3ccc4c(c3)OCCCO4)n2)c1 [compound 581],IC50,HCT116; [1],≤ 20 µM
same,IC50,A549 cells; [3],≤ 20 µM
CC(C)Oc1cccc(Nc2nc(Nc3ccc4oc(C(=O)N5CCOCC5)cc4c3)ncc2F)c1 [compound 625],IC50,HCT116; [4],≤ 20 µM
same,IC50,A549 cells; [5],≤ 20 µM
O=C(c1cc2cc(Nc3ncc(F)c(Nc4ccc5c(c4)OCCO5)n3)ccc2o1)N1CCOCC1 [compound 626],IC50,HCT116; [1],≤ 20 µM
same,IC50,HCT116; [4],≤ 20 µM
same,IC50,A549 cells; [5],< 20 µM
CNC(=O)c1cc2cc(Nc3ncc(F)c(Nc4ccc5c(c4)OCCO5)n3)ccc2o1 [compound 629],IC50,HCT116; [1],≤ 20 µM
same,IC50,HCT116; [4],≤ 20 µM
same,IC50,A549 cells; [5],≤ 20 µM
O=C(NCCO)c1cc2cc(Nc3ncc(F)c(Nc4ccc5c(c4)OCCO5)n3)ccc2o1 [compound 631],IC50,HCT116; [1],≤ 20 µM
same,IC50,HCT116; [4],≤ 20 µM
same,IC50,A549 cells; [5],≤ 20 µM
O=C(c1cc2cc(Nc3ncc(F)c(Nc4ccc5c(c4)OCCO5)n3)ccc2o1)N1CCNCC1 [compound 632],IC50,HCT116; [1],≤ 20 µM
same,IC50,HCT116; [4],≤ 20 µM
same,IC50,A549 cells; [5],≤ 20 µM
O=C(c1cc2cc(Nc3ncc(F)c(Nc4cccc(O)c4)n3)ccc2o1)N1CCNCC1 [compound 633],IC50,HCT116; [1],≤ 20 µM
same,IC50,HCT116; [4],≤ 20 µM
same,IC50,A549 cells; [5],≤ 20 µM
COC(=O)c1cc2cc(Nc3ncc(F)c(Nc4cccc(O)c4)n3)ccc2o1 [compound 636],IC50,HCT116; [1],> 20 µM
same,IC50,HCT116; [4],> 20 µM
same,IC50,A549 cells; [5],≤ 20 µM
CCOC(=O)c1cc2cccc(Nc3ncc(F)c(Nc4ccc5c(c4)OCCO5)n3)c2[nH]1 [compound 647],IC50,HCT116; [1],≤ 20 µM
same,IC50,HCT116; [4],≤ 20 µM
same,IC50,A549 cells; [5],≤ 20 µM
COc1ccc(Nc2nc(Nc3ccc4cnn(C(C)(C)CC5CCC5)c4c3)ncc2F)cc1Cl [compound 1102],IC50,H1299 cells,≤ 20 µM
same,IC50,A549 cells,≤ 20 µM
CC1(C)Oc2ccc(Nc3nc(Nc4ccc5cnn(C(C)(C)CC6CCC6)c5c4)ncc3F)cc2NC1=O [compound 1104],IC50,H1299 cells,≤ 20 µM
same,IC50,A549 cells,≤ 20 µM
COc1cc(Nc2nc(Nc3ccc4cnn(C(C)(C)CC5CCC5)c4c3)ncc2F)ccc1F [compound 1105],IC50,H1299 cells,≤ 20 µM
same,IC50,A549 cells,≤ 20 µM
COc1ccc(Nc2nc(Nc3ccc4c(cnn4C(C)(C)CC4CC4)c3)ncc2F)cc1Cl [compound 1106],IC50,H1299 cells,≤ 20 µM
same,IC50,A549 cells,≤ 20 µM
CC(C)(CC1CC1)n1ncc2cc(Nc3ncc(F)c(Nc4ccc(Cl)c(Cl)c4)n3)ccc21 [compound 1107],IC50,H1299 cells,> 20 µM
same,IC50,A549 cells,> 20 µM
COc1cc(Nc2nc(Nc3ccc4c(cnn4C(C)(C)CC4CC4)c3)ncc2F)ccc1F [compound 1109],IC50,H1299 cells,≤ 20 µM
same,IC50,A549 cells,≤ 20 µM
COc1ccc(Nc2nc(Nc3ccc4cnn(C(C)(C)CC5CC5)c4c3)ncc2F)cc1Cl [compound 1110],IC50,H1299 cells,≤ 20 µM
same,IC50,A549 cells,≤ 20 µM
CC(C)(CC1CC1)n1ncc2ccc(Nc3ncc(F)c(Nc4ccc(Cl)c(Cl)c4)n3)cc21 [compound 1111],IC50,H1299 cells,≤ 20 µM
same,IC50,A549 cells,≤ 20 µM
CC1(C)Oc2ccc(Nc3nc(Nc4ccc5cnn(C(C)(C)CC6CC6)c5c4)ncc3F)cc2NC1=O [compound 1112],IC50,H1299 cells,≤ 20 µM
same,IC50,A549 cells,≤ 20 µM
COc1cc(Nc2nc(Nc3ccc4cnn(C(C)(C)CC5CC5)c4c3)ncc2F)ccc1F [compound 1113],IC50,H1299 cells,≤ 20 µM
same,IC50,A549 cells,≤ 20 µM
COc1cc(C)c(Nc2ncc(F)c(Nc3ccc4c(c3)NC(=O)[C@@H](C)O4)n2)cc1Cl [compound 1139],IC50,"H1299 cells; Homo sapiens, NCI-H1299",> 20 µM
same,IC50,A549 cells; Homo sapiens,≤ 20 µM
COc1cc(C)c(Nc2ncc(F)c(Nc3ccc4c(c3)NC(=O)[C@H](C)O4)n2)cc1Cl [compound 1140],IC50,"H1299 cells; Homo sapiens, NCI-H1299",> 20 µM
same,IC50,A549 cells; Homo sapiens,> 20 µM
COc1cc(OC)c(Nc2ncc(F)c(Nc3ccc4c(c3)NC(=O)[C@H](C)O4)n2)cc1Cl [compound 1141],IC50,"H1299 cells; Homo sapiens, NCI-H1299",> 20 µM
same,IC50,A549 cells; Homo sapiens,> 20 µM
COc1cc(C)c(Nc2ncc(F)c(Nc3ccc4c(c3)NC(C)(C)CO4)n2)cc1Cl [compound 1142],IC50,"H1299 cells; Homo sapiens, NCI-H1299",> 20 µM
same,IC50,A549 cells; Homo sapiens,≤ 20 µM
O=C1Nc2ccc(Nc3nc(Nc4cccc(-c5ncco5)c4)ncc3F)cc2OC1CCO (stereo not drawn) [compound 1145],IC50,"H1299 cells; Homo sapiens, NCI-H1299",≤ 20 µM
same,IC50,A549 cells; Homo sapiens,≤ 20 µM
Cc1ccc(CNc2ncc(F)c(Nc3ccc4c(c3)OCCO4)n2)cc1Cl [compound 1146],IC50,"H1299 cells; Homo sapiens, NCI-H1299",> 20 µM
same,IC50,A549 cells; Homo sapiens,≤ 20 µM
CC(Nc1ncc(F)c(Nc2ccc3c(c2)OCCO3)n1)c1ccccc1 (stereo not drawn) [compound 1147],IC50,"H1299 cells; Homo sapiens, NCI-H1299",≤ 20 µM
same,IC50,A549 cells; Homo sapiens,≤ 20 µM
COc1ccc(Nc2nc(Nc3cc(OC)c(Cl)cc3OC)ncc2F)cc1Cl [compound 1158],IC50,"H1299 cells; Homo sapiens, NCI-H1299",≤ 20 µM
same,IC50,A549 cells; Homo sapiens,≤ 20 µM
COc1cc(Nc2nc(Nc3cc(OC)c(Cl)cc3OC)ncc2F)cc(OC)c1 [compound 1159],IC50,"H1299 cells; Homo sapiens, NCI-H1299",≤ 20 µM
same,IC50,A549 cells; Homo sapiens,≤ 20 µM
CNc1ncc(F)c(Nc2cc(Cl)c(OC)c(Cl)c2)n1 [compound 1160],IC50,"H1299 cells; Homo sapiens, NCI-H1299",≤ 20 µM
same,IC50,A549 cells; Homo sapiens,≤ 20 µM
COc1cc(C(N)=O)c(Nc2ncc(F)c(N(C)C3CCC3)n2)cc1OC(=O)c1ccccc1 [compound 1162],IC50,"H1299 cells; Homo sapiens, NCI-H1299",≤ 20 µM
same,IC50,A549 cells; Homo sapiens,≤ 20 µM
COc1cc(C(N)=O)c(Nc2ncc(F)c(NC3CCCC3)n2)cc1OC(=O)c1ccccc1 [compound 1163],IC50,"H1299 cells; Homo sapiens, NCI-H1299",≤ 20 µM
same,IC50,A549 cells; Homo sapiens,≤ 20 µM
COc1cc(C(N)=O)c(Nc2ncc(F)c(NC3CCCCC3)n2)cc1OC(=O)c1ccccc1 [compound 1164],IC50,"H1299 cells; Homo sapiens, NCI-H1299",≤ 20 µM
same,IC50,A549 cells; Homo sapiens,≤ 20 µM
